Patent publication US12116593B2, “Method for producing adenohypophysis or precursor tissue thereof” (RIKEN, priority 2014, dated 2024)
Ends that are not written are not given here.

Key:
Human ES cells (KhES-1) = assay: Differentiation of human ES cell aggregates in serum-free suspension culture (SFEBq), fluorescent antibody method; type: cell-based
Source text: Human ES cells (KhES-1) were subjected to maintenance culture by a conventional method on MEF and used. To monitor differentiation induction into a hypothalamus tissue, KhES-1 wherein Venus cDNA is knocked-in into the gene of Rx which is a hypothalamus neuroepithelium marker was used. To differentiate human ES cells by serum-free suspension culture of aggregate (SFEBq method), human ES cells were dispersed to single cells by enzyme by the method of Nakano et al. (Cell Stem Cell, 2012), and reaggregated in a low cell adhesive V-bottom 96 well plate (SUMITOMO BAKELITE). 5,000 cells were seeded per well, and cultured in the following differentiation medium at 5% CO2, 37° C. gfCDM medium (growth-factor-free Chemically Defined Medium; Wataya et al., PNAS, 2008)+5% KSR (Invitrogen).
With the day of seeding as day 0 of differentiation culture, 20 μM Y-27632 (ROCK inhibitor; inhibitor of cell death during dispersion: Watanabe et al., Nature Biotechnology, 2007) was added from day 0 to day 3, and a half of the medium was exchanged with a differentiation medium free of Y-27632 on days 3 and 6 of culture. From day 3 to day 18 of culture, BMP4 (final concentration 5 nM) was added to the medium. On and after day 18, a half of the medium was exchanged every 3 days with a medium free of BMP4. […] On and after day 18, the oxygen partial pressure during the culture was set to 40%. Tissue differentiation was analyzed by a fluorescent antibody method.
The cell aggregates derived from human ES cells and simultaneously containing ventral hypothalamus tissue and epidermal placode were formed by the method of Example 1, culture was continued until day 27 or day 30 of culture under similar conditions, and the aggregates were analyzed by a fluorescent antibody method. In some culture, FGF2 (final concentration 20 ng/ml) was added to the medium from day 15 of culture.
By the method of Example 1, an influence of the presence or absence of BMP4 addition on the differentiation of cell aggregates was analyzed by a fluorescent antibody method.
By the method of Example 1, an influence of the presence or absence of the addition of hedgehog signal agonist SAG on the differentiation of cell aggregate was analyzed by a fluorescent antibody method.
In addition to the method of Example 8, differentiation of hypophysial placode reacted with Notch signal inhibitor DAPT (10 μM) from day 72 to day 82 of culture was analyzed by a fluorescent antibody method.

[1] = system: aggregates containing ACTH-producing cells; assay: In vitro ACTH release from aggregates containing ACTH-producing cells, ELISA; type: cell-based, human; details: 37° C.
Experimental: In vitro hormone secretory capacity was analyzed using the aggregates containing ACTH-producing cells produced by the method of Example 5. Using a 1.5 ml Eppendorf tube containing 250 μl of HBSS(−) containing 16 aggregates at day 80 of culture, the aggregates were incubated in the presence or absence of CRH (1 μg/ml) at 37° C. for 10 min. The concentration of ACTH in the culture supernatant was quantified by the ELISA method.
Furthermore, to examine feedback suppressive ability due to downstream hormone (glucocorticoid), 16 aggregates on day 80 of culture were preincubated in the presence or absence of hydrocortisone (20 μg/ml) at 37° C. for 3 hr, and the effect of release of ACTH after CRH treatment was analyzed.

Tbx19 = Tbx19 expression in aggregates by qPCR; type: cell-based, human; details: DAPT 10 μM day 65 to 74; aggregates on day 74
Experimental: According to the method of Example 5, hypophysial placode derived from human ES cells was formed, and cultured for a long term. DAPT (10 μM), a Notch signal inhibitor, was allowed to act thereon from day 65 to day 74 of culture, and the effect thereof was analyzed by a qPCR method.

[2] = system: aggregate containing GH-producing cells; assay: In vitro GH release from aggregates containing GH-producing cells, ELISA; type: cell-based, human; details: GRF 100 ng/ml, 37° C., 30 min; aggregates differentiated with hydrocortisone 1 μg/ml days 72-84; day 84
Experimental: In addition to the method of Example 10, in vitro hormone secretory capacity was analyzed using the aggregate containing GH-producing cells differentiated in a medium containing hydrocortisone (1 μg/ml) from days 72 to 84 of culture. Using a 1.5 ml Eppendorf tube containing 500 μl of HBSS containing 33 aggregates at day 84 of culture, the aggregates were incubated in the presence or absence of GRF (100 ng/ml) at 37° C. for 30 min. The concentration of GH in the culture supernatant was quantified by the ELISA method.
In addition to the method of Example 10, in vitro hormone secretory capacity was analyzed using the aggregate containing GH-producing cells differentiated in a medium containing dexamethasone (40 ng/ml) from days 70 to 84 of culture. Using a 1.5 ml Eppendorf tube containing 750 μl of a medium containing 30 aggregates at day 84 of culture, the aggregates were incubated in the presence of GRF (0.1, 1, 10 μg/ml) at 37° C. for 30 min. The concentration of GH in the culture supernatant was quantified by the ELISA method. In addition, in order to investigate a potential of somatostatin to suppress GH secretion, 18 aggregates at day 98 of culture were incubated in the presence or absence of somatostatin (100 ng/ml) at 37° C. for 90 min, and effects on GH release after GRF treatment were analyzed.

mouse system = assay: Exogenous BMP4 added to mouse system; type: cell-based
[3] = SAG 2 μM from day 6, with BMP4, day 24 and 27
[4] = BMP4 5 nM day 3-18 vs no addition, day 24

FGF2: known cytokine also called basic fibroblast growth factor (bFGF)
increase of formation of hypophysial placode (Human ES cells (KhES-1); FGF2 20 ng/ml from day 15 of culture, day 27/30 aggregates): 30%

CRH: hypothalamic stimulus inducing release of ACTH from ACTH-producing cells (SEEPPISLDLTFHLLREVLEMARAEQLAQQAHSNRKLMEII; ends and bridges not checked; UniProt P06850 154-194, looked up)
ACTH concentration in culture supernatant vs incubation in absence of CRH ([1]; CRH 1 μg/ml, 10 min, 16 aggregates at day 80): not less than 5 fold

C[C@H](NC(=O)Cc1cc(F)cc(F)c1)C(=O)N[C@H](C(=O)OC(C)(C)C)c1ccccc1 [DAPT, N—[N-(3,5-difluorophenacetyl)-1-alanyl]-S-phenylglycine t-butyl ester]
increase of Tbx19 expression vs non-treatment group (Tbx19): ≥ 8 times
endocrine cells found in hypophysial placode after DAPT (Human ES cells (KhES-1); DAPT 10 μM day 72 to 82): LH-producing cells and FSH-producing cells were found in the hypophysial placode

GRF: stimulus inducing release of GH from GH-producing cells (YADAIFTNSYRKVLGQLSARKLLQDIMSRQQGESNQERGARARL; ends and bridges not checked; UniProt P01286 32-75, looked up)
GH concentration in culture supernatant vs incubation in absence of GRF [2]: not less than 6 fold

C[C@]12CCC(=O)C=C1CC[C@@H]1[C@@H]2[C@@H](O)C[C@@]2(C)[C@H]1CC[C@]2(O)C(=O)CO [hydrocortisone]
ACTH concentration after CRH treatment relative to preincubation without hydrocortisone ([1]; hydrocortisone 20 μg/ml preincubation 3 hr, day 80 aggregates): less than one-sevenths

CN[C@H]1CC[C@H](N(Cc2cccc(-c3ccncc3)c2)C(=O)c2sc3ccccc3c2Cl)CC1 [SAG, 3-Chloro-N-[trans-4-(methylamino)cyclohexyl]-N-[[3-(4-pyridinyl)phenyl]methyl]-benzo[b]thiophene-2-carboxamide]
tissue differentiated under BMP4 non-addition conditions (Human ES cells (KhES-1); BMP4 not added, SAG 200 nM d6-25, day 24): FoxG1-positive and Nkx2.1-positive basal ganglion was differentiated
formation of hypophysial placode on the surface (Human ES cells (KhES-1); [3]): hypophysial placode was formed on the surface
tissue formed in the inside of the aggregates (Human ES cells (KhES-1); [3]): ventral hypothalamus tissue (Rx::Venus-positive, Chx10-negative, Nkx2.1-positive) was formed in the inside of the aggregates

BMP4: bone morphogenetic factor signal transduction pathway activating substance; a known cytokine
differentiation of neural tissue in the aggregate (Human ES cells (KhES-1); [4]): differentiation induction of neural tissue of hypothalamus
formation of surface ectoderm (Human ES cells (KhES-1); [4]): active formation of surface ectoderm
formation of neuroepithelial tissue (hypothalamus) inside the cell aggregate (mouse system): acted inhibitingly on the formation of the neuroepithelial tissue (hypothalamus)
formation of surface ectoderm (mouse system): promoted formation of surface ectoderm
